Experimental data taken from US9688687B2, “Polymorphic forms of icotinib phosphate and uses thereof” (BETTA PHARMACEUTICALS CO., LTD., priority 2013, dated 2017).
Where a name gives a salt, the structure may show the parent alone. Read-outs that look alike come from different tables or passages of the source.

Test: Pharmacokinetic study of Icotinib hydrochloride and Polymorph Form II of Icotinib phosphate, oral suspension in fasted SD rats
Assay type: in vivo
Conditions: dose equivalent to 50 mg/kg Icotinib, plasma; for AUC(0-t): read-out: AUC(0-24)
Text: Drugs and reagents: The Icotinib hydrochloride used in this study was of Crystalline Form I disclosed by the WO2010/003313. Polymorph Form II of Icotinib phosphate and Icotinib hydrochloride were ground to fine particles. The material content (purity) was not less than 99.0%. Sodium carboxymethyl cellulose was medical supply graded.
Experimental animals: SD rats were divided to an Icotinib hydrochloride group and a Polymorph Form II group, with both groups consisting of half males and half females.
Pharmaceutical preparation: the amount of each compound was weighed and then sodium carboxymethyl cellulose was added to result in the test compound's concentration of 0.5%. The solid mixture was then added to prepare a suspension thereof at a final concentration of […] in water.
Administration and sample collection: each suspension was administered orally to fasted SD rats at a dose equivalent to 50 mg/kg Icotinib in a dose volume of 5 ml/kg. 0.4 ml of blood was collected in EDTA-K pre anticoagulant tubes at time intervals of 0.5, 1, 1.5, 2, 4, 6, 8 and 24 hrs after the administration of the test compound, centrifuged at 3000 rpm for 10 minutes, and 120 μL plasma was collected and kept in cold storage.
Samples were analyzed by high performance liquid chromatography. The chromatographic conditions utilized C18-silane bonded silica as stationary phase, 0.02 mol/L of sodium dihydrogen phosphate in […] (40:60, using sodium hydroxide solution to adjust pH to 5.0) as the mobile phase and a detection wavelength of 334 nm. PK profile comparison of Crystalline Form I of Icotinib Hydrochloride and Polymorph Form II of Icotinib phosphate was summarized in Table 1 and FIG. 5.

[1] = male, SD, rat, po, 50 mg/kg, male SD rats
[2] = female, SD, rat, po, 50 mg/kg, female SD rats

C#Cc1cccc(Nc2ncnc3cc4c(cc23)OCCOCCOCCO4)c1 [Icotinib Phosphate polymorph form II, Icotinib phosphate]
AUC(0-24) (female SD rats): 155200 ± 20200 ng·h/mL | AUC(0-∞) (female SD rats): 156700 ± 17800 ng·h/mL | Cmax (female SD rats): 13100 ± 2400 ng/mL | T1/2 (female SD rats): 2.9 ± 0.4 h | Tmax (female SD rats): 4.7 ± 1.2 h | T1/2 (male SD rats): 2.6 ± 0.2 h | Tmax (male SD rats): 2.3 ± 1.5 h | AUC(0-inf) [1]: 28700 ± 8100 ng·h/mL | AUC(0-t) [1]: 28600 ± 8100 ng·h/mL

C#Cc1cccc(Nc2ncnc3cc4c(cc23)OCCOCCOCCO4)c1 [Icotinib hydrochloride]
T1/2 (female SD rats, hydrochloride): 6.2 ± 3.5 h | AUC(0-inf) [2]: 124000 ± 13000 ng·h/mL | AUC(0-t) [2]: 113000 ± 24000 ng·h/mL | Cmax (female, SD, rat, po, 50 mg/kg, female SD rats, read-out: Cmax): 10200 ± 1900 ng/mL | Tmax (female, SD, rat, po, 50 mg/kg, female SD rats, read-out: Tmax): 3 ± 1.7 h | AUC(0-24) (male SD rats, hydrochloride): 19000 ± 7100 ng·h/mL | AUC(0-∞) (male SD rats, hydrochloride): 19100 ± 7200 ng·h/mL | half-life [1]: 2.9 ± 0.4 h | Cmax (male, SD, rat, po, 50 mg/kg, male SD rats, read-out: Cmax): 3400 ± 400 ng/mL | Tmax (male, SD, rat, po, 50 mg/kg, male SD rats, read-out: Tmax): 2.3 ± 3.2 h
